Data as given in patent publication US9624491B2, “Methods and compositions for the detection and treatment of cancer involving miRNAs and miRNA inhibitors and targets” (Memorial Sloan Kettering Cancer Center, priority 2010, dated 2017).

Assays:
[1] = tested on: 3′UTR of Pten, Ppp2r5e, Prkaa1 and Bim; assay: Reporter assay for 3′UTR repression by miR-19; assay type: cell-based; conditions: wild type vs mutated miR-19 binding sites
Excerpt: FIG. 14. Reporter assay for 3′ untranslated region (3′UTR) repression by miR-19. The 3′UTR of the indicated genes was subcloned into a dual luciferase reporter construct (pSiCheck2) and inhibition of the 3′UTR by miR-19 is indicated as mean±SD ratio of Renila to Firefly luciferase activity (RLuc/Luc). WT indicates the wild type 3′UTR. M indicates the 3′UTR where the miR-19 binding site has been mutated. In the case of Pten, one site (M1) or both sites (M1+M2) were mutated [* indicates significant (p<0.05) changes; ** indicates non-significant (p>0.05) changes.]
The Dock5, Ppp2r5e, Prkaa1, and Bim 3′-UTR fragments were generated by PCR and cloned into the psi-CHECK-2 vector (Promega). The assays were performed as described (Xiao, et al., 2008). Binding site mutants were generated by site-directed mutagenesis.

[2] = tested on: Pten, Ppp2r5e, Prkaa1 and Bim mRNA; assay: qRT-PCR of miR-19 target genes in FL5-12 cells; assay type: cell-based; conditions: FL5-12 cells and murine T-ALL samples
Excerpt: Total RNA and miRNA-enriched RNA were extracted from cells and tumor samples using Allprep DNA/RNA/Protein Kits (Qiagen) and miRNeasy Mini Kits (Qiagen), respectively. Pathological diagnosis was by expert hematopathologists at Weill Cornell Medical College. cDNA synthesis and qRT-PCR and analysis by the ΔΔ Ct method were as described (Mavrakis, et al., 2008). TaqMan Gene Expression Assays were used for Bcl2L11 (Mm00437796_m1), Dock5 (Mm00555757_m1), FoxO1 (Mm00490672_m1), FoxO3 (Mm01185722_m1), Ppp2r5e (Mm00803759_m1), Prkaa1 (Mm01296695_m1) and Pten (Mm01212532_m1). Mouse GAPD (GAPDH) (4352932) and miR-19b (000396) were from Applied Biosystems. Expression was normalized to RNU6B (001093, Applied Biosystems).

[3] = tested on: PPP2R5E, PRKAA1, BIM, PTEN, Bnip3, phosphorylated S6; assay: Immunoblot on lysates of transduced FL5-12 cells; assay type: cell-based, murine
Procedure: Immunoblots were performed from whole cell lysates as described (Wendel, et al., 2004). Briefly, 50 μg of protein/sample were resolved on SDS-PAGE gels and transferred to Immobilon-P-membranes (Millipore). Antibodies were against Prkaa1 (2532, 1:1000, Cell Signaling), Bim/Bcl2L11 (AAP-330, 1:1000, Assay Designs), FoxO1 (94545, 1:1000, Cell Signaling), FoxO3a (9467, 1:1000, Cell Signaling) Phospho-FoxO3a (94665, 1:1000, Cell Signaling), Ppp2r5e (NB 100-845, NOVUS), Pten (9559, 1:1000, Cell Signaling), tubulin (1:5000; Sigma, B-5-1-2), actin (1:5000; Sigma, AC-15), Bnip3 (3769, 1:1000, Cell Signaling), phosphorylated S6 (2215, 1:1000, Cell Signaling), phosphorylated Akt (4058, 1:1000, Cell Signaling) and Dock5 [a generous gift from Alan Hall (MSKCC)]. Enhanced chemiluminescence was used for detection (ECL, Amersham).

NOTCH1-induced T-ALL = assay: Mouse model of Notch-ICN (NOTCH1)-induced T-ALL, adoptive transfer of transduced HPCs; assay type: in vivo; conditions: HPCs expressing NOTCH1-ICN plus miRNA or shRNA transplanted into irradiated recipients
Procedure: Can miR-19 drive the development of lymphatic malignancies in vivo? Based on the miR-19 expression and translocation data, miR-19 was assessed in a mouse model of T-ALL (Pear, et al., 1996). Briefly, most cases of T-ALL carry mutations in the Notch1 gene, and, like the […] translocation, these generate the constitutively active intracellular domain of NOTCH1 (Notch-ICN) (Weng, et al., 2004). To test miR-19's ability to promote Notch-ICN-induced T-ALL in vivo, HPCs were adoptively transferred into irradiated recipients (FIG. 3d). […] At the same time, 80% of the mice receiving HPCs expressing only Notch-ICN remained disease free (p=0.0003) (FIG. 3e).
The mouse models of Notch1-induced T-ALL and the EμMyc lymphoma based on adoptive transfer of retrovirally transduced HPCs have been reported (Pear, et al., 1996), (Wendel, et al., 2004). Data were analyzed in Kaplan-Meier format using the log-rank (Mantel-Cox) test for statistical significance. The p53 loss of heterozygosity polymerase chain reaction (LOH PCR) and immunophenotyping by surface marker analysis were as described (Wendel, et al., 2004).
A murine model of NOTCH1-induced T-ALL was used to directly test the oncogenic potential of the most promising miRNAs in vivo. Briefly, HPCs were transduced with NOTCH1 together with either empty vector or an miRNA and transplanted into irradiated, syngeneic recipients. Animals were monitored for leukemia onset by regular blood counts (FIG. 22a). […] Typically, animals receiving HPCs transduced with these miRNAs develop an acute leukemia by 75 days, while >80% of vector controls or animals receiving miR-30 (n=5, p=0.15) remain disease free at this time (FIG. 22b). Based on the in vitro screen and prediction, additional miRNAs were tested. […] Thus, miR-19b, miR-20a, miR-26a, miR-223 and also the less abundant miR-27a and miR-148/152 behave as oncogenes in a murine T-ALL model.
The mouse T-ALL model has been reported (Pear, et al., 1996), (Wendel, et al., 2004). Data were analyzed in Kaplan-Meier format using the log-rank (Mantel-Cox) test for statistical significance. […]

For “miR-19: miRNA of the 17˜92 cluster, UGUGCAAAUCCAUGCAAAACUGA (SEQ ID NO: 2); seed family in Table 3 (expressed or natural sequence; listed as Homo sapiens)”, the “3′UTR inhibition (RLuc/Luc)” value [1] was “direct 3′ untranslated region (UTR) inhibition via the miR-19 binding sites”, the “reductions in the mRNA levels of Pten, Ppp2r5r, Prkaa1 and Bim” value [2] was “up to 2 ×” and the Bnip3 protein ([3]; FL5-12 cells) was “neither miR-19 nor the antagomir had an effect on Bnip3”. For the same substance, the PTEN protein ([3]; FL5-12 cells) was “no detectable effect on PTEN protein”, the “miR-19 target protein levels” value ([3]; FL5-12 cells) was “clear reduction in PPP2R5E, PRKAA1, and BIM” and the “ribosomal S6 phosphorylation” value ([3]; FL5-12 cells withdrawn from IL3 for 12 hours) was “directly activated ribosomal S6 phosphorylation”. For the same substance, the “leukemia onset / leukemia-free survival” value (NOTCH1-induced T-ALL) was “rapidly succumbed to T-ALL” and the “leukemia onset / leukemia-free survival” value (NOTCH1-induced T-ALL; listed as miR-19b) was “disease acceleration”.
